Test results as given in patent publication US6559159B2, “Kappa opioid receptor ligands” (Research Triangle Institute, priority 2001, dated 2003).

Columns and labels:
delta opioid receptor [1] = molecular target: T1, delta opioid receptor (Cavia porcellus, UniProt A0A286XTF2); assay: Inhibition of SNC-80-stimulated [35S]GTPγS binding in guinea pig caudate; type: biochemical; conditions: 50% attenuation of SNC80 (10 μM)-stimulated [35S]GTP-γ-S binding, ± SD, read-out: Apparent Functional Ki SNC-80
T1 construct: as measured in guinea pig caudate membranes; from tissue; host or cells: guinea pig caudate membranes

delta opioid receptor [2] = molecular target: T2, delta opioid receptor (Homo sapiens, UniProt P41143); assay: Radioligand competitive binding, [3H]DADLE; conditions: for Ki: delta, ± SD
kappa opioid receptor [3] = molecular target: T3, kappa opioid receptor (Homo sapiens, UniProt P41145); assay: Radioligand competitive binding, [3H]U69,593; conditions: for Ki: radioligand binding, kappa, ± SD; for delta/kappa selectivity ratio (binding) / mu/kappa selectivity ratio (binding): column head not printed in Table 1
kappa opioid receptor [4] = molecular target: T4, kappa opioid receptor (Cavia porcellus, UniProt P41144); assay: Inhibition of U69,593-stimulated [35S]GTPγS binding in guinea pig caudate; type: biochemical; conditions: for Ki: 50% attenuation of U69,593 (10 μM)-stimulated [35S]GTP-γ-S binding, ± SD, read-out: Apparent Functional Ki U69,593; for δ/κ / μ/κ: ratio of apparent functional Ki
T4 construct: as measured in guinea pig caudate membranes; from tissue; host or cells: guinea pig caudate membranes

mu opioid receptor [5] = molecular target: mu opioid receptor (Cavia porcellus, UniProt A0ACM8Q262); assay: Inhibition of DAMGO-stimulated [35S]GTPγS binding in guinea pig caudate; type: biochemical; conditions: 50% attenuation of DAMGO (10 μM)-stimulated [35S]GTP-γ-S binding, ± SD, read-out: Apparent Functional Ki DAMGO
mu opioid receptor [6] = molecular target: T5, mu opioid receptor (Homo sapiens, UniProt P35372); assay: Radioligand competitive binding, [3H]DAMGO; conditions: for Ki: radioligand binding, mu, ± SD
delta opioid receptor [7] = molecular target: T2, delta opioid receptor; assay: Inhibition of SNC-80-stimulated [35S]GTPγS binding in cloned human opioid receptors; type: biochemical; parameters: expressed in transfected cells; conditions: 50% attenuation of SNC80 (10 μM)-stimulated [35S]GTP-γ-S binding, ± SD, read-out: Apparent Functional Ki SNC-80
mu opioid receptor [8] = molecular target: T5, mu opioid receptor; assay: Inhibition of DAMGO-stimulated [35S]GTPγS binding in cloned human opioid receptors; type: biochemical; parameters: expressed in transfected cells; conditions: 50% attenuation of DAMGO (10 μM)-stimulated [35S]GTP-γ-S binding, ± SD, read-out: Apparent Functional Ki DAMGO
kappa opioid receptor [9] = molecular target: T3, kappa opioid receptor; assay: Inhibition of U69,593-stimulated [35S]GTPγS binding in cloned human opioid receptors; type: biochemical; parameters: expressed in transfected cells
[10] = ratio of apparent functional Ki, cloned human receptors

| SMILES | Ki (delta opioid receptor [1]) [nM] | Ki (delta opioid receptor [2]) [nM] | Ki (kappa opioid receptor [3]) [nM] | delta/kappa selectivity ratio (binding) (kappa opioid receptor [3]; ratio of binding Ki) | mu/kappa selectivity ratio (binding) (kappa opioid receptor [3]; ratio of binding Ki) | Ki (kappa opioid receptor [4]) [nM] | δ/κ (kappa opioid receptor [4]) | μ/κ (kappa opioid receptor [4]) | Ki (mu opioid receptor [5]) [nM] | Ki (mu opioid receptor [6]) [nM] | Ki (delta opioid receptor [7]) [nM] | affinity for the delta receptor (in words) (delta opioid receptor [2]; within the testing parameters) | Ki (mu opioid receptor [8]) [nM] | delta/kappa selectivity profile (binding, text) (kappa opioid receptor [3]; ratio of binding Ki) [fold] | Ki (kappa opioid receptor [9]; cloned human opioid receptors, 50% attenuation of U69,593 (10 μM)-stimulated [35S]GTP-γ-S binding, ± SD, read-out: Apparent Functional Ki U69,593) [nM] | δ/κ (kappa opioid receptor [9]; [10]) | μ/κ (kappa opioid receptor [9]; [10]) | affinity for the mu receptor lower than compound 10 (mu opioid receptor [6]; binding Ki of 12 relative to 10) [fold] |
| --- | --- | --- | --- | --- | --- | --- | --- | --- | --- | --- | --- | --- | --- | --- | --- | --- | --- | --- |
| Oc1ccc2c3c1O[C@H]1c4[nH]c5c(c4C[C@@]4(O)[C@@H](C2)N(CC2CC2)CC[C@]314)C[C@@]1(O)[C@H]2Cc3ccc(O)c4c3[C@@]1(CCN2CC1CC1)[C@H]5O4 [6, nor-BNI, norbinaltorphimine] | 86 ± 7.2 | – | – | – | – | – | – | – | – | – | – | – | – | – | – | – | – | – |
| CC1C2CCCC1(c1cccc(O)c1)CCN2CCc1ccccc1 (stereo not drawn) [Compound 10, N-phenethyl-9β-methyl-5-(3-hydroxyphenyl)morphan, reference compound] | 12.6 ± 1.01 | 272 ± 30 | 14.5 ± 0.99 | 19 | 0.21 | 1.34 ± 0.084 | 9.4 | 0.25 | 0.338 ± 0.028 | 3.11 | – | – | – | – | – | – | – | – |
| C[C@@H]1CN(CCCc2ccccc2)[C@H]2C[C@H](NC(=O)CCN3CCCCC3)C[C@]1(c1cccc(O)c1)C2 [Compound 12, (−)-N-[(1R,4S,5S, 7R)-5-(3-hydroxy)phenyl-4-methyl-2-(3-phenylpropyl)-2-azabicyclo[3.3.1]non-7-yl]-3-(1-piperidinyl)propanamide] | > 300 | > 3400 | 4.3 | >790 | 34 | 0.48 ± 0.06 | >625 | 70 | 33.6 ± 10.4 | 147 | > 100 | no affinity | 35.8 ± 6.8 | > 790 | 0.56 ± 0.08 | >178 | 64 | ~50 |
| C[C@@H]1CN(CCCc2ccccc2)[C@H]2C[C@H](NC(=O)CCCN(C)C)C[C@]1(c1cccc(O)c1)C2 [Compound 13, 4-(dimethylamino)-N-[(1R,4S,5S,7R)-5-(3-hydroxyphenyl)-4-methyl-2-(3-phenylpropyl)-2-azabicyclo[3.3.1]non-7-yl]butanamide] | – | 1460 ± 113 | 11.9 ± 0.65 | 122 | 5 | – | – | – | – | 57 ± 5.4 | – | – | – | – | – | – | – | – |
